Earlier results on two compounds are cited in PMC9516332 (Frontiers in Oncology, 2022).

SMILES strings stand for the structures.

For data set [1], the target named is T1, panel of 255 wild-type kinases (Homo sapiens, UniProt Q9NWZ3).
T1 sequence (Q9NWZ3 1-460): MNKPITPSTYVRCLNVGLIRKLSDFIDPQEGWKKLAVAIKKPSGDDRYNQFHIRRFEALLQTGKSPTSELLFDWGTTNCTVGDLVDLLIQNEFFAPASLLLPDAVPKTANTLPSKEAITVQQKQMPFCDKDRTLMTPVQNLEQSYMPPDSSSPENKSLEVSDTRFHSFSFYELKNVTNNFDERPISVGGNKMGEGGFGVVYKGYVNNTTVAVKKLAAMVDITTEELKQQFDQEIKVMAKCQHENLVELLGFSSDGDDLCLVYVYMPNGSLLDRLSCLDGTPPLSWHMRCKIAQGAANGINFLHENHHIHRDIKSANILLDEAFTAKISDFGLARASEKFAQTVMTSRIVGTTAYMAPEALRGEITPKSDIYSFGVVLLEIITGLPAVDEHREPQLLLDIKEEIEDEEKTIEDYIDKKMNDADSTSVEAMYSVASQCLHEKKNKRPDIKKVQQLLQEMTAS
The settings on record: kinase IRAK4; 1 µmol/L single concentration; ref DOI: 10.1371/journal.pone.0092146; cited from earlier work.

Data set [2] concerns the target panel of 255 wild-type kinases (Homo sapiens, UniProt P49760). The settings on record: kinase CLK2; 1 µmol/L single concentration; ref DOI: 10.1371/journal.pone.0092146; cited from earlier work.
Data set [3] addresses panel of 255 wild-type kinases (Homo sapiens, UniProt Q9P0L2). The settings on record: MARK1; 1 µmol/L single concentration; ref DOI: 10.1371/journal.pone.0092146; cited from earlier work.
Data set [4] has as its target T2, panel of 255 wild-type kinases (Homo sapiens, UniProt P51955).
T2 sequence (P51955 1-445): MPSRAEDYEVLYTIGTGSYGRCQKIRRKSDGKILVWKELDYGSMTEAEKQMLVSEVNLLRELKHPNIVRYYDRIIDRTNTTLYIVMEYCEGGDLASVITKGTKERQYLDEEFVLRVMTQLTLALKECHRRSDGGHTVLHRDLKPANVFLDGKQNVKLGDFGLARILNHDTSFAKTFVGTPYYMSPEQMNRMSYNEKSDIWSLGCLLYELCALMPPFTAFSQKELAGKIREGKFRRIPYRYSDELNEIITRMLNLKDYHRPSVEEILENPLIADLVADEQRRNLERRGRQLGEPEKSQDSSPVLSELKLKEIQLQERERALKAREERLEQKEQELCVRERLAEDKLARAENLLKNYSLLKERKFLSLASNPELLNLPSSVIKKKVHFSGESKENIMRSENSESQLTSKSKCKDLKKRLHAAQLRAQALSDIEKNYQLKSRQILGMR
The settings on record: NEK2; 1 µmol/L single concentration; ref DOI: 10.1371/journal.pone.0092146; cited from earlier work.

The target of data set [5] is T3, panel of 255 wild-type kinases (Homo sapiens, UniProt Q9HBY8).
T3 sequence (Q9HBY8 1-367): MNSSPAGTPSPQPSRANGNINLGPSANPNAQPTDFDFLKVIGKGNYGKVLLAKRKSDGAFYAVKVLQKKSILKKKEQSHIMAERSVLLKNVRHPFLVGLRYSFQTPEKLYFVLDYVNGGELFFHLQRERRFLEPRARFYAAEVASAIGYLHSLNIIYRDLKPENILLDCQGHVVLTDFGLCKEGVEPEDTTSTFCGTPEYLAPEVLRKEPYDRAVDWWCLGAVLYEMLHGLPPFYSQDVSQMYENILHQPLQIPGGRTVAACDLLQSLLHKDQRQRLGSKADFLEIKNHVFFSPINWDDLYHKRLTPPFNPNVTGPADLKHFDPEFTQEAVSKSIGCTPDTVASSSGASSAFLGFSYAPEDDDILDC
Particulars: kinase SGK2; 1 µmol/L single concentration; ref DOI: 10.1371/journal.pone.0092146; cited from earlier work.

Data set [6] addresses panel of 255 wild-type kinases (Homo sapiens, UniProt P35968). The settings on record: kinase KDR; 1 µmol/L single concentration; ref DOI: 10.1371/journal.pone.0092146; cited from earlier work.
Data set [7] deals with T4, panel of 255 wild-type kinases (Homo sapiens, UniProt Q92630).
T4 sequence (Q92630 1-601): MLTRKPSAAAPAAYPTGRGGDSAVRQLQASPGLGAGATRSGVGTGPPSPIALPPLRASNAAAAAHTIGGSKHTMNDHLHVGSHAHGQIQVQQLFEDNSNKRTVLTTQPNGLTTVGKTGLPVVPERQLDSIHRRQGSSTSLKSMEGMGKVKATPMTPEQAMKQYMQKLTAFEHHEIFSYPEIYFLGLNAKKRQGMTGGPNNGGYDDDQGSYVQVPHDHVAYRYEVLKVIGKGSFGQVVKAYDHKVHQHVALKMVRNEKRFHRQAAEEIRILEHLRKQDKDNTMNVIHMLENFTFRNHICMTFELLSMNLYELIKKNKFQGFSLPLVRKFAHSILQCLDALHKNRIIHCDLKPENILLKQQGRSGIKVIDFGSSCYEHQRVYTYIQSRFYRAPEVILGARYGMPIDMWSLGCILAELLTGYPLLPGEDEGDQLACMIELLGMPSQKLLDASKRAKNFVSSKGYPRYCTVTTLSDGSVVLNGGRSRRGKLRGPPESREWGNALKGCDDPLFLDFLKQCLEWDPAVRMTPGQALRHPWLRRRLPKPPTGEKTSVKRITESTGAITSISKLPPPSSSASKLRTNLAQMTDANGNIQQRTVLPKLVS
Particulars: kinase DYRK2; 1 µmol/L single concentration; ref DOI: 10.1371/journal.pone.0092146; cited from earlier work.

Data set [8] addresses panel of 255 wild-type kinases (Homo sapiens, UniProt Q04912). The settings on record: kinase RON; 1 µmol/L single concentration; ref DOI: 10.1371/journal.pone.0092146; cited from earlier work.
Data set [9] addresses panel of 255 wild-type kinases (Homo sapiens, UniProt P53779). The settings on record: kinase JNK3; 1 µmol/L single concentration; ref DOI: 10.1371/journal.pone.0092146; cited from earlier work.

Take `CC(=O)Nc1cccc(-n2c(=O)n(C3CC3)c(=O)c3c(Nc4ccc(I)cc4F)n(C)c(=O)c(C)c32)c1` [trametinib]: in data set [1], the “%-inhibition at 1 µmol/L, IRAK4” value is -5%. For the same compound, the “%-inhibition at 1 µmol/L, CLK2” value in [2] was -5%. The “%-inhibition, MARK1” value in [3] is reported as -17%. In addition, in data set [4], the “%-inhibition, NEK2” value was 2.76%. In addition, in [5], the “%-inhibition at 1 µmol/L, SGK2” value was -7%. The “%-inhibition at 1 µmol/L, KDR” value in data set [6] is reported as -0.549%. The “%-inhibition at 1 µmol/L, DYRK2” value in data set [7] is given as -0.0865%. In data set [8], the “%-inhibition at 1 µmol/L, RON” value is reported as -6.44%. Also, the “%-inhibition at 1 µmol/L, JNK3” value in [9] is listed as -2.37%.

Regarding `CCCS(=O)(=O)Nc1ccc(F)c(C(=O)c2c[nH]c3ncc(-c4ccc(Cl)cc4)cc23)c1F` [vemurafenib], the “%-inhibition at 1 µmol/L, IRAK4” value in [1] is -4.29%. For the same compound, the “%-inhibition at 1 µmol/L, CLK2” value in data set [2] was -13%. Besides, in [3], the “%-inhibition, MARK1” value is -9%. The “%-inhibition, NEK2” value in data set [4] is recorded as -1%. Also, the “%-inhibition at 1 µmol/L, SGK2” value in data set [5] was 2.66%. Also, in data set [6], the “%-inhibition at 1 µmol/L, KDR” value is given as 13%. Besides, the “%-inhibition at 1 µmol/L, DYRK2” value in data set [7] is 1%. Further, the “%-inhibition at 1 µmol/L, RON” value in [8] is -2%. Also, the “%-inhibition at 1 µmol/L, JNK3” value in data set [9] is reported as 2.85%.
